Data taken from the supplement of paper PMC4862054.
Several values for one entry are separate records, joined by “and”; a condition that tells them apart may be missing. Identical values can stand only once.

Key:
Conditions in all cases: incubation time: 72 h
BT-474 [1] = assay: drug sensitivity score (DSS), CellTiter-Blue viability (DSS (AUC-based score)); higher = stronger viability inhibition; extreme values may be limits of the assay
Experimental: (§1)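 DSRT with the CellTiter-Blue (resazurin reduction) viability readout, fluorescence 560/590 nm, 72 h incubation. Plates were normalised to DMSO and benzethonium chloride controls. DSS is computed from the area under the fitted dose-response curve (5 or 9 concentrations).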

HCC1143 [2] = assay: as above
Experimental: as §1

BT-474 [3] = assay: drug sensitivity score (DSS), CellTiter-Glo (DSS (AUC-based score)); higher = stronger drug effect (viability inhibition or cytotoxicity); extreme values may be limits of the assay
Method in brief: (§2)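 Each compound occupied 5 concentrations in 10-fold steps over its own 10,000-fold range in 384-well plates, into which breast cancer cell lines were seeded as 20 µl suspension. Following 72 h of incubation, CellTox Green fluorescence (485/520 nm) was measured, and CellTiter-Glo luminescence was measured after 10 min at room temperature. Plates were individually normalised to 0.1 % DMSO and a positive kill control. From the area under the fitted dose-response curve, a drug sensitivity score was calculated.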

BT-549 = assay: as above
Method in brief: as §2

CAL-120 = assay: as above
Method in brief: as §2

CAL-148 = assay: as above
Method in brief: as §2

CAL-51 = assay: as above
Method in brief: as §2

CAL-85-1 = assay: as above
Method in brief: as §2

DU-4475 = assay: as above
Method in brief: as §2

HCC1143 [4] = assay: as above
Method in brief: as §2

HCC1599 = assay: as above
Method in brief: as §2

HCC1937 = assay: as above
Method in brief: as §2

HDQ-P1 = assay: as above
Method in brief: as §2

Hs578T = assay: as above
Method in brief: as §2

MCF-10A = assay: as above
Method in brief: as §2

MDA-MB-231 = assay: as above
Method in brief: as §2

MDA-MB-436 = assay: as above
Method in brief: as §2

MDA-MB-453 = assay: as above
Method in brief: as §2

MDA-MB-468 = assay: as above
Method in brief: as §2

MFM-223 = assay: as above
Method in brief: as §2

SK-BR-3 = assay: as above
Method in brief: as §2

Row | Compound | drug sensitivity score (BT-474 [1]) | drug sensitivity score (HCC1143 [2]) | drug sensitivity score (BT-474 [3]) | drug sensitivity score (BT-549) | drug sensitivity score (CAL-120) | drug sensitivity score (CAL-148) | drug sensitivity score (CAL-51) | drug sensitivity score (CAL-85-1) | drug sensitivity score (DU-4475) | drug sensitivity score (HCC1143 [4]) | drug sensitivity score (HCC1599) | drug sensitivity score (HCC1937) | drug sensitivity score (HDQ-P1) | drug sensitivity score (Hs578T) | drug sensitivity score (MCF-10A) | drug sensitivity score (MDA-MB-231) | drug sensitivity score (MDA-MB-436) | drug sensitivity score (MDA-MB-453) | drug sensitivity score (MDA-MB-468) | drug sensitivity score (MFM-223) | drug sensitivity score (SK-BR-3)
1 | Nc1nc2[nH]cnc2c(=S)[nH]1 [Thioguanine] | 0 | 0 | 12 | 1.98 | 6.5 | 1.29 | 5.29 | 6.09 | 4.33 | 0.8 | 5.01 | 8.45 | 7.16 | 6.84 | 0 | 10.2 | 4.37 | 1.4 | 1.72 | 0 | 0
2 | COc1cc2c(cc1O)CC[C@@H]1[C@@H]2CC[C@]2(C)[C@@H](O)CC[C@@H]12 [2-methoxyestradiol] | 6.94 | 4.05 | 5.9 | 10.1 | 4.15 | 2.17 | 5.34 | 5.61 | 2.41 | 3.67 | 2.6 | 0 | 0.369 | 7.49 | 0 | 5.78 | 6.35 | 5.52 | 4.21 | 4.75 | 5.71
3 | CC(C)(C)c1cnc(CSc2cnc(NC(=O)C3CCNCC3)s2)o1 [SNS-032] | 15.2 | 17.4 | 17.8 | 27 | 14.8 | 10.3 | 28.6 | 25.1 | 18.9 | 24.3 | 18.5 | 17.2 | 21.6 | 21.8 | 18.6 | 25.3 | 23.7 | 17.7 | 28.1 | 17.1 | 25.6
4 | Nc1ncn([C@@H]2O[C@H](CO)[C@@H](O)[C@H]2O)c(=O)n1 [Azacitidine] | 0 | 0 | 1.74 | 5.75 | 0 | 0 | 0 | 0 | 0 | 0 | 1.27 | 0 | 2.36 | 0 | 0 | 0 | 4.78 | 0 | 12.1 | 0 | 0
5 | O=C1CN2Cc3c(ccc(Cl)c3Cl)N=C2N1 [Anagrelide] | 0 | 0 | 0.269 | 0 | 0 | 0 | 0.565 | 0 | 0 | 0 | 0 | 0 | 0 | 1.32 | 0 | 0 | 0 | 0 | 0 | 0 | 0
6 | CC[C@@H]1C(=O)OC[C@@H]1Cc1cncn1C [Pilocarpine] | 0 | 0 | 0 | 0 | 0 | 0 | 0 | 0 | 0 | 0 | 0 | 0 | 0 | 0 | 0 | 0 | 0 | 0 | 0 | 0 | 0
7 | CC1(C)CNc2cc(NC(=O)c3cccnc3NCc3ccncc3)ccc21 [Motesanib] | 0 | 0 | 0 | 0 | 0 | 0 | 0 | 0 | 0 | 0 | 0 | 0 | 0 | 0 | 0 | 0 | 0 | 0 | 0.164 | 0 | 0
8 | CC1=C2C[C@H]3[C@@H](CC=C4C[C@@H](O)CC[C@@]43C)[C@@H]2CC[C@]12O[C@@H]1C[C@H](C)CN[C@H]1[C@H]2C [Cyclopamine] | 0 | 0 | 0 | 0 | 0 | 0 | 0 | 0 | 0 | 0 | 0 | 0 | 0 | 0 | 0 | 0 | 0 | 0 | 0 | 0 | 0
9 | Cc1sc2c(c1C)C(c1ccc(Cl)cc1)=N[C@@H](CC(=O)OC(C)(C)C)c1nnc(C)n1-2 [(+)JQ1] | 0 | 6.54 | 7.3 | 13.3 | 4.19 | 6.21 | 1.66 | 12.7 | 9.61 | 5.11 | 0 | 3.6 | 6.56 | 12.8 | 9.62 | 3.61 | 2.63 | 10.7 | 9.62 | 8.38 | 5.66
10 | Cn1cnc2c(F)c(Nc3ccc(Br)cc3Cl)c(C(=O)NOCCO)cc21 [Selumetinib] | 0 | 12.6 | 7.93 | 0.661 | 3 | 0 | 0 | 0 | 19.9 | 0 | 0.803 | 0 | 11.1 | 0 | 17.3 | 5.56 | 0.63 | 0 | 2.35 | 0 | 0
11 | CC(=O)O[C@@]12CO[C@@H]1C[C@H](O)[C@@]1(C)C(=O)[C@H](O)C3=C(C)[C@@H](OC(=O)[C@H](O)[C@@H](NC(=O)OC(C)(C)C)c4ccccc4)C[C@@](O)([C@@H](OC(=O)c4ccccc4)[C@H]21)C3(C)C [Docetaxel] | 21.1 and 19.5 | 19.6 and 25.2 | 15.6 | 30.5 | 13.3 | 20.5 | 19.5 | 25.6 | 15.1 | 23.7 | 16.7 | 10.6 | 10.6 | 27.2 | 20.4 | 19.4 | 22 | 14.8 | 27.3 | 16.7 | 31.4
12 | O=NN(CCCl)C(=O)NCCCl [Carmustine] | 0 | 0 | 0 | 0 | 0 | 0 | 0 | 0 | 0 | 0 | 0 | 0 | 0 | 0 | 0 | 0 | 0 | 0 | 0 | 0 | 0
13 | Oc1ncnc2[nH]ncc12 [Allopurinol] | 0 | 0 | 0 | 0 | 0 | 0 | 0 | 0 | 0 | 0 | 0 | 0 | 0 | 0 | 0 | 0 | 0 | 0 | 0 | 0 | 0
